# Source: ChEMBL document CHEMBL6092203, “Discovery of Novel PROTAC-Based HPK1 Degraders with High Potency and Selectivity for Cancer Immunotherapy” (J Med Chem, 2024)
# Key:
# [1] = In vivo induction of phosphorylated SLP-76 degradation in C57BL/6J mouse spleen at 0.5 mg/kg administered as single dose and measured after 12 hrs; format: functional
# [2] = AUCinfinity in Sprague-Dawley rat at 1 mg/kg, po measured upto 24 hrs by LC-MS analysis; format: ADME, organism-based; details: in vivo
# [3] = Volume of distribution at steady state in Sprague-Dawley rat at 2 mg/kg, iv measured upto 24 hrs by LC-MS analysis; format: ADME, organism-based; details: in vivo, read-out: Vdss
# in vivo [4] = details: C57BL/6J, mouse, po, 10 mg/kg
# MC-38 [5] = test: Synergistic antitumor activity against mouse MC38 cells implanted in C57BL/6J mouse assessed as reduction in tumor volume at 0.5 mg/kg, po bid administered for 3 to 4 weeks in presence of 5 mg/kg anti-PD1 and measured twice a week (reference value: 1549.22 +/- 217.92 mm3); format: functional; details: time 3-4 weeks
# [6] = Toxicity in C57BL/6J mouse assessed as change in body weight at 0.1 to 1 mg/kg, po bid measured after 28 days in presence of 5 mg/kg anti-PD1; format: organism-based; details: in vivo, 672 h, dose 0.1-1 mg/kg, time 28 day
# in vivo [7] = details: beagle, dog, po, 5 mg/kg
# Description: Cmax in Beagle dog at 5 mg/kg, po measured upto 24 hrs by LC-MS analysis
# MC-38 [8] = test: Synergistic antitumor activity against mouse MC38 cells implanted in C57BL/6J mouse assessed as tumor weight inhibition rate at 0.5 mg/kg, po bid measured after 4 weeks in presence of 5 mg/kg anti-PD1 and measured twice a week; format: functional; set-up: scale not given: the % may be the effect or the level left
# MC-38 [9] = test: Antitumor activity against mouse MC38 cells implanted in C57BL/6J mouse assessed as reduction in tumor weight at 0.1 mg/kg, po BID administered for 3 to 4 weeks (reference value: 1.79 +/- 0.24 g); format: functional; details: time 3-4 weeks
# [10] = In vivo induction of HPK1 degradation in C57BL/6J mouse spleen at 0.5 mg/kg administered as single dose and measured after 8 to 24 hrs; format: functional; details: time 8-24 hrs
# in vitro [11] = details: human, liver microsomes
# [12] = Metabolic stability in monkey liver microsomes assessed as intrinsic clearance at 1 uM incubated for 45 mins by LC-MS/MS method; format: ADME, Macaca mulatta, Microsome; details: rhesus monkey, read-out: CLH
# [13] = Half-life in C57BL/6J mouse at 10 mg/kg, po measured upto 24 hrs by LC-MS analysis; details: in vivo
# [14] = Drug metabolism in monkey hepatocytes assessed as phase 1 metabolites formation at 10 uM incubated for 120 mins by UHPLC-UV/MS/MS method; format: ADME, cell-based, Macaca mulatta, Hepatocyte; details: rhesus monkey, 2 h
# [15] = Volume of distribution at steady state in C57BL/6J mouse at 2 mg/kg, iv measured upto 24 hrs by LC-MS analysis; format: ADME, organism-based; details: in vivo, read-out: Vdss
# [16] = Toxicity in Sprague-Dawley rat assessed as efficacy dose measured after 14 days; details: in vivo, 336 h, time 14 day
# [17] = Half-life in Sprague-Dawley rat at 1 mg/kg, po measured upto 24 hrs by LC-MS analysis; details: in vivo
# MC-38 [18] = test: Antitumor activity against mouse MC38 cells implanted in po dosed C57BL/6J mouse assessed as tumor growth inhibition administered for 3 to 4 weeks; format: functional, organism-based; details: time 3-4 weeks
# [19] = Apparent permeability across basolateral to apical side in human Caco-2 cells at 10 uM incubated for 2 hrs by LC-MS/MS analysis; format: ADME, cell-based
# [20] = Toxicity in C57BL/6J mouse assessed as body weight loss at 0.1 to 0.5 mg/kg, po bid administered for 3 to 4 weeks; format: organism-based; details: in vivo, dose lower 0.1 mg/kg, time lower 3 weeks, dose upper 0.5 mg/kg, time upper 4 weeks
# in vivo [21] = details: Sprague-Dawley, rat, po, 1 mg/kg
# [22] = Drug metabolism in dog hepatocytes assessed as phase 2 metabolites formation at 10 uM incubated for 120 mins by UHPLC-UV/MS/MS method; format: ADME, cell-based, Canis lupus familiaris, Hepatocyte; details: 2 h
# [23] = Half-life in C57BL/6J mouse at 2 mg/kg, iv measured upto 24 hrs by LC-MS analysis; details: in vivo
# [24] = Metabolic stability in rat hepatocytes assessed as intrinsic clearance at 1 uM incubated for 90 mins by LC-MS/MS method; format: ADME, cell-based, Hepatocyte; details: 1.5 h
# MC-38 [25] = test: Antitumor activity against mouse MC38 cells implanted in C57BL/6J mouse assessed as tumor growth inhibition at 1 mg/kg, po BID measured after 4 weeks; format: functional; details: MC-38, 672 h, read-out: TGI
# [26] = biological target: T1, Protein cereblon/Mitogen-activated protein kinase kinase kinase kinase 1 (Homo sapiens, UniProt Q92918+Q96SW2); test: PROTAC activity at CRBN/HPK1 in human Jurkat cells assessed as HPK1 degradation at 1 uM after 4 hrs by Western blotting analysis; format: cell-based
# T1 sequence (Q92918 whole entry, looked up): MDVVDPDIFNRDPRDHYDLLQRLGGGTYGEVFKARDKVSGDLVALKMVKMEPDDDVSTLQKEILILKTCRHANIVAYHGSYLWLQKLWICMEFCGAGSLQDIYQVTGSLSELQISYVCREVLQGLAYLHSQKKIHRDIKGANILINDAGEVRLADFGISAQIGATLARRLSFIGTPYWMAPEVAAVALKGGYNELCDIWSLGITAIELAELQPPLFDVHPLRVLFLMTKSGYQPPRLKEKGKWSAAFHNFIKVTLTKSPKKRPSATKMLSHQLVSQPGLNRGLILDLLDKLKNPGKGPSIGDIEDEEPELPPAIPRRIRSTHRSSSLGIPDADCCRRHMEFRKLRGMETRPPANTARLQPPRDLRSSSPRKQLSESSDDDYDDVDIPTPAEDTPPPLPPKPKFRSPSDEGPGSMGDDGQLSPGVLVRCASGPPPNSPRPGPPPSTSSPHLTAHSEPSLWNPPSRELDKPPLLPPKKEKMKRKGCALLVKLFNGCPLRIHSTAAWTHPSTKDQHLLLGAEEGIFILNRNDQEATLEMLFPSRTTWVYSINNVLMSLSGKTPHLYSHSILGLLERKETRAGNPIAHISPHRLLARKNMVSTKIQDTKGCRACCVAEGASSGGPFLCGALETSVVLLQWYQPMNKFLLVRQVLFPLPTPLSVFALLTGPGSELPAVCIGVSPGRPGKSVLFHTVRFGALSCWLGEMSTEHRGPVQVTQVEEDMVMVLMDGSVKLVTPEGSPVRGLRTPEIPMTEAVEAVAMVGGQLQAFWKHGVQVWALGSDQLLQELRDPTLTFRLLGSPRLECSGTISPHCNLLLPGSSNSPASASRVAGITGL
# T1 sequence (Q96SW2 whole entry, looked up): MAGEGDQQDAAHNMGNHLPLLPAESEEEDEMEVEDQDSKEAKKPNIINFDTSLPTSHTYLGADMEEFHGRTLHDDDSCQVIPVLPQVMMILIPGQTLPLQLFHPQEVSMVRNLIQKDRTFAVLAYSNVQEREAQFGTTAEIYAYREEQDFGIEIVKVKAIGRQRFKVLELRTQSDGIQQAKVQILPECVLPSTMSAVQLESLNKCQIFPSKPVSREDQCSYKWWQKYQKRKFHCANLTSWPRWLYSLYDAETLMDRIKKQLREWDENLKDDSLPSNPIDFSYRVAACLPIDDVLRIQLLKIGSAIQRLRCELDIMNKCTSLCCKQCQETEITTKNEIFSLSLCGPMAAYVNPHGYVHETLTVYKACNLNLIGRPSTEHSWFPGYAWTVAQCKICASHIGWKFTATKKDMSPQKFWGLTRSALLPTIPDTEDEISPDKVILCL
# [27] = Plasma protein binding in human at 10 uM incubated for 6 hrs by equilibrium dialysis based LC-MS/MS method; format: ADME, cell-free; details: read-out: PPB
# in vitro [28] = details: rat, liver microsomes
# [29] = biological target: T1, Protein cereblon/Mitogen-activated protein kinase kinase kinase kinase 1; test: PROTAC activity at CRBN/HPK1 in human Jurkat cells assessed as HPK1 degradation at 1 uM by Western blotting analysis; format: cell-based; details: time 4-72 hrs
# [30] = Drug metabolism in human hepatocytes assessed as phase 1 metabolites formation at 10 uM incubated for 120 mins by UHPLC-UV/MS/MS method; format: ADME, cell-based, Hepatocyte; details: 2 h
# MC-38 [31] = test: Antitumor activity against mouse MC38 cells implanted in C57BL/6J mouse assessed as reduction in tumor volume at 0.1 mg/kg, po BID administered for 3 to 4 weeks (reference value: 1549.22 +/- 217.92 mm3); format: functional; details: time 3-4 weeks
# Jurkat = test: Induction of p-SLP76 at Ser376 protein degradation in human Jurkat cells incubated for 24 hrs by Western blotting analysis relative to control; format: cell-based
# Cytochrome P450 2D6 = Cytochrome P450 2D6 (Homo sapiens, UniProt P10635); test: Inhibition of CYP2D6 in human liver microsomes using dextromethorphan as substrate in presence of NADPH; format: ADME, Microsome
# Chain of Cytochrome P450 2D6 (P10635 whole entry): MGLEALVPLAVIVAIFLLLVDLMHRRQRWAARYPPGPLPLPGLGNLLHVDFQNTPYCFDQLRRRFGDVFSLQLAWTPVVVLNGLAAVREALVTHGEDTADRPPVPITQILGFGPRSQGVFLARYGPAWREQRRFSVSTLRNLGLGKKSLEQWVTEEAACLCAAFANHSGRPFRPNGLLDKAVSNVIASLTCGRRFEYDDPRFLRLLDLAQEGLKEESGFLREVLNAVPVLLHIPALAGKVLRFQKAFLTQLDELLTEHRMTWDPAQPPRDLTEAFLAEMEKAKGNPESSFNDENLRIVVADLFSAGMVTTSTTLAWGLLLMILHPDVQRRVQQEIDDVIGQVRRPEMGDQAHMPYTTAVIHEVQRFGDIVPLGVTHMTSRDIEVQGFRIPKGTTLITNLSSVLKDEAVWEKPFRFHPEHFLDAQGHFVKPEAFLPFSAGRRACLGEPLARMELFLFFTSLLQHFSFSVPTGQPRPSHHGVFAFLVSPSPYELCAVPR
# [32] = Drug distribution in rat heart measured after 0.5 to 6 hrs; format: ADME, tissue-based; details: in vivo, time 0.5-6 hrs
# MC-38 [33] = test: Antitumor activity against mouse MC38 cells implanted in C57BL/6J mouse assessed as tumor weight inhibition rate at 1 mg/kg, po BID measured after 4 weeks; format: functional; set-up: scale not given: the % may be the effect or the level left
# in vivo [34] = details: male, Sprague-Dawley, rat, po, 2 mg/kg
# [35] = Tmax in C57BL/6J mouse at 10 mg/kg, po measured upto 24 hrs by LC-MS analysis; format: ADME, organism-based; details: in vivo
# [36] = Drug metabolism in rat hepatocytes assessed as phase 1 metabolites formation at 10 uM incubated for 120 mins by UHPLC-UV/MS/MS method; format: ADME, cell-based, Hepatocyte; details: 2 h
# [37] = Tmax in male Sprague-Dawley rat at 100 mg/kg/day, po measured at day 1; format: ADME, organism-based; details: in vivo, time 1 day
# [38] = Clearance in mouse relative to hepatic blood flow; details: in vivo
smiles,measurement,setting,value
O=C1CCN(c2cc(C(=O)N3CCC(CC4CCN(c5ccc(-c6cnc7[nH]cc(-c8cnn(CC(F)(F)F)c8)c7n6)cn5)CC4)CC3)ccc2Cl)C(=O)N1,Emax at 0.5 mg/kg,[1],77.6%
same,AUC(0-inf),[2],894 ng·h/mL
same,Vd,[3],0.834 L/kg
same,Cmax at 24 h,in vivo [4],3180 ng/mL
same,Activity,MC-38 [5],139.36 mm3
same,Activity,[6],Non-toxic
same,Cmax at 24 h,in vivo [7],111 ng/mL
same,Activity,MC-38 [8],86.54%
same,Activity,MC-38 [9],1.4 g
same,Emax at 0.5 mg/kg,[10],61.3%
same,"half-life at 0.75 h, 1 µM",in vitro [11],> 5 h
same,microsomal CLint at 1 µM,[12],38 µL/min/mg
same,half-life at 24 h,[13],3.44 h
same,Drug metabolism,[14],metabolite_detected
same,Vd,[15],0.659 L/kg
same,Activity,[16],0.8 mg/kg/day
same,half-life at 24 h,[17],5.15 h
same,Activity,MC-38 [18],Dose-dependent-effect; Twice Daily Dose Was Slightly Better Than Once Daily
same,"Papp B→A at 2 h, 10 µM",[19],0.112 ×10⁻⁶ cm/s
same,Activity,[20],Non-toxic
same,Cmax at 24 h,in vivo [21],98.7 ng/mL
same,Drug metabolism,[22],metabolite_detected
same,half-life at 24 h,[23],1.17 h
same,CLH,[24],2.97 µL/min/mg
same,inhibition in vivo at 1 mg/kg,MC-38 [25],17.5%
same,Activity,[26],55.6%
same,"fraction unbound at 6 h, 10 µM",[27],0.001
same,"half-life at 0.75 h, 1 µM",in vitro [28],4.12 h
same,Activity,[29],Time-dependent-effect
same,Drug metabolism,[30],metabolite_detected
same,Activity,MC-38 [31],1107.91 mm3
same,Emax,Jurkat,82.1%
same,IC50,Cytochrome P450 2D6,> 10 µM
same,Drug uptake,[32],Active
same,Activity,MC-38 [33],12.77%
same,Cmax at 336 h,in vivo [34],64.2 ng/mL
same,Tmax,[35],1 h
same,Drug metabolism,[36],metabolite_detected
same,Tmax,[37],7.5 h
same,clearance,[38],27 mL/min/kg
